Source: US9346757B2, “Pyridine derivatives and their use in the treatment of conditions associated with pathological thrombus formation” (SANOFI, priority 2012, dated 2016)

Experiments:
Type in all cases: cell-based
LPA receptor LPAR5 [1] = target: T1, LPA receptor LPAR5 (Homo sapiens, UniProt Q9H1C0); assay: FLIPR assay, intracellular Ca2+ release in human mast cell line HMC-1; settings: human mast cell line HMC-1, LPA-stimulated Ca2+ release, compound added 10 minutes prior LPA
T1 construct: two cell lines were used with high LPAR5 expression, the human mast cell line HMC-1; endogenous in cells; host or cells: HMC-1 human mast cell line
Source text: (§1) B) Use of the Fluorometric Imaging Plate Reader (FLIPR) Assay for the Determination of Intracellular Ca^2+ Release in Human Mast Cell Line HMC-1 and the Murine Microglia Cell Line BV-2
(§2) The ability of the compounds of the formula I to inhibit or bind the LPA receptor LPAR5 can be assessed by determining the intracellular Ca^2+ release in human or animal cells. For the analysis of activating potential of LPA and the inhibitory effects of compounds of the formula I two cell lines were used with high LPAR5 expression, the human mast cell line HMC-1 and the murine microglia cell line BV-2 (FIGS. 1 and 2). For the FLIPR assay using human mast cells in a 96-well-format, HMC-1 suspension cells from flask culture were harvested, resuspended and counted. 14×10^6 HMC-1 cells were transferred into a new 50 ml tube, centrifuged for 3 minutes at 540×g. The resulting cell pellet at the bottom of the tube was resuspended with 15 ml loading buffer (loading buffer contained HBSS buffer (pH 7.4), 0.1% BSA (bovine serum albumin), 2 μM FLUO-4 dye; HBSS buffer (pH 7.4) contained 1×HBSS, 20 mM HEPES, 0.01% Pluronic F-127, 2.5 mM Probenicid).
Cells in loading buffer were incubated for 45-60 minutes at 37° C. After incubation cells were centrifuged for 3 minutes at 540×g and resuspended with 21 ml of HBSS buffer (pH 7.4). Each well of a poly-D-lysine coated 96-well-plate was filled with 150 μl cell solution, an equivalent of 100 000 cells/well. The 96-well-plate was centifuged for 2 minutes at 100×g (without brake) prior a recovery time of 30 minutes at 37° C. After this procedure cells were stimulated with LPA (in HBSS pH 7.4 and 0.1% BSA) to determine the EC50 of LPA in HMC-1 cells. For the determination of the inhibitory effect of compounds of the formula I, test compounds were added to the cells in the 96-well-plate 10 minutes prior the addition of LPA. Results of the assay are expressed as % activation, and are calculated using maximum peak of activation (Amax). […]

LPA receptor LPAR5 [2] = target: T2, LPA receptor LPAR5 (Mus musculus, UniProt Q149R9); assay: FLIPR assay, intracellular Ca2+ release in murine microglia cell line BV-2; settings: murine microglia cell line BV-2, LPA-stimulated Ca2+ release, compound added 10 minutes prior LPA
T2 construct: two cell lines were used with high LPAR5 expression, the human mast cell line HMC-1 and the murine microglia cell line BV-2; endogenous in cells; host or cells: BV-2 murine microglia cell line
Source text: as §1, §2
Cells in loading buffer were incubated for 45-60 minutes at 37° C. […] Results of the assay are expressed as % activation, and are calculated using maximum peak of activation (Amax). […]

[3] = target: T3, platelet LPA receptor LPAR5 (Homo sapiens, UniProt Q9H1C0); assay: Aggregation assay for washed human blood platelets (LPA-induced); settings: reduction of maximal aggregation, 5 min preincubation at 37° C.
T3 construct: the cellular pellet, consisting of human blood platelets was then dissolved in 10 ml buffer T; endogenous in cells; host or cells: washed human blood platelets from healthy volunteers
Method: A) Aggregation Assay for Washed Human Blood Platelets (Thrombocytes)
Whole blood was collected from healthy volunteers using 3×20 ml syringes containing each 1/10 volume of buffered citrate. The anticoagulated whole blood was transferred into 50 ml polypropylene conical tubes (30 ml per tube). The tubes were centrifuged for 10 minutes at 150×g at room temperature without using the centrifuge brake. This procedure results in a lower phase of cellular components and a supernatant (upper phase) of platelet rich plasma (PRP). The PRP phase was collected from each tube and pooled for each donor. […] The platelet concentration was determined using a ABX Micros 60 counter. […] Platelet concentration in this solution was determined and buffer T was added to obtain a final concentration of 3.5×10^5 platelets per ml.
After 10 minutes at room temperature, 1 μl PGI2 per ml platelet solution was added and distributed into new 10 ml tubes. […] Aggregation was measured over 6 minutes at 37° C. with 1200 rpm (revolutions per minute) stirring. Results of the assay are expressed as % activation, and are calculated using maximum aggregation (Tmax) or area under curve (AUC) of the absorbance over 6 minutes. The inhibitory effect (IC50) of the test compounds was determined as the reduction of the maximal aggregation. […]

T1 sequence (Q9H1C0 whole entry): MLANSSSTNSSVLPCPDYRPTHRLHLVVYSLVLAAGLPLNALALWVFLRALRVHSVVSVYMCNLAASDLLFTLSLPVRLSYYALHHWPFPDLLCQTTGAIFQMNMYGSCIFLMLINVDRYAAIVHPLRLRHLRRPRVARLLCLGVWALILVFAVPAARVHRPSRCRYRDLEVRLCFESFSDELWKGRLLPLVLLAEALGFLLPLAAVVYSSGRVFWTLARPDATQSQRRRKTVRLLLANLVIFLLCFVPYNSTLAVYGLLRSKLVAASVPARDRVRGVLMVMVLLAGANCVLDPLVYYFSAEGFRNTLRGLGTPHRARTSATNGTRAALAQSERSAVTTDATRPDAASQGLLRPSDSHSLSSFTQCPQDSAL
T2 sequence (Q149R9 whole entry): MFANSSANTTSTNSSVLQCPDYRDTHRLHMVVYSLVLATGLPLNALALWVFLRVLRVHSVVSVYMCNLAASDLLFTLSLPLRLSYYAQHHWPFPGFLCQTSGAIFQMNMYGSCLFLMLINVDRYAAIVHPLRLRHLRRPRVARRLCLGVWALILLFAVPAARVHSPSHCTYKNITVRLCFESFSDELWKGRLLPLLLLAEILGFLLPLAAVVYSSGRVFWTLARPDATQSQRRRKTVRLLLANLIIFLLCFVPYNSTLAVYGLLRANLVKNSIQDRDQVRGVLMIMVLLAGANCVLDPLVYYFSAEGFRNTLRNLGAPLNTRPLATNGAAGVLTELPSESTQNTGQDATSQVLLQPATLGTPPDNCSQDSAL
T3 sequence (Q9H1C0 whole entry): as the sequence (Q9H1C0 whole entry) above

IC50 (LPA receptor LPAR5 [1])	IC50 (LPA receptor LPAR5 [2])	IC50 [3]	SMILES
3.7 µM			Cc1nc(-c2ccc(C(F)(F)F)cc2)c(-c2ccc(Cl)cc2Cl)cc1COC(C)C(=O)Nc1ccc(C(=O)O)cc1 (centres unmarked) [Example 1, 4-{2-[5-(2,4-Dichloro-phenyl)-2-methyl-6-(4-trifluoromethyl-phenyl)-pyridin-3-ylmethoxy]-propionylamino}-benzoic acid]
0.13 µM	3.2 µM	3.6 µM	Cc1nc(-c2ccc(Cl)cc2)c(-c2ccc(Cl)cc2Cl)cc1COC(C)(C)C(=O)NCc1ccc(C(=O)O)cc1 [Example 14, 4-({2-[6-(4-Chloro-phenyl)-5-(2,4-dichloro-phenyl)-2-methyl-pyridin-3-ylmethoxy]-2-methyl-propionylamino}-methyl)-benzoic acid]
1.8 µM			Cc1nc(-c2ccc(Cl)cc2)c(-c2ccc(Cl)cc2Cl)cc1COC(C)(C)C(=O)NCCCC(=O)O [Example 15, 4-{2-[6-(4-Chloro-phenyl)-5-(2,4-dichloro-phenyl)-2-methyl-pyridin-3-ylmethoxy]-2-methyl-propionylamino}-butyric acid]
